Results as given in patent US20070270475A1, “4-Methoxy-Pyrrolidine-2-Carboxylic Acid Compounds and Derivatives Thereof as Hepatitis C Virus Inhibitors” (priority 2004, published 2007).

Tested on: 11-7 cell line (NS2-5B) HCV replicon
Experiment: Replicon ELISA cell based assay, genotype 1b, 11-7 cell line (NS2-5B)
Set-up: species or system HCV genotype 1b
Conditions: Hepatitis C virus; 11-7 cell line (NS2-5B) used instead of the 5-15 cell line
Method: Replicon ELISA Cell Based Assay
100 μL of medium containing 10% FCS were added to each well of clear, flat-bottomed 96 well microplates, excepting wells in the top row. Test compound was diluted in assay medium to twice the final required starting concentration from a 40 mM stock solution in DMSO. 200 μL of the starting dilution were introduced into two wells each in the top row and doubling dilutions made down the plate by the sequential transfer of 100 μL aliquots with thorough mixing in the wells; the final 100 μL were discarded. The two bottom rows were not used for compound dilutions. […]
Following incubation, the assay medium was aspirated from the plates. […] The reaction was stopped by the addition of 25 μL per well of 2 M sulphuric acid and the plates were read at 490 nm on a Fluostar Optima spectrophotometer. […]
The absorbance values from all compound-free wells that had received both primary and secondary antibodies were averaged to obtain a positive control value. The mean absorbance value from the compound-free wells that had not received the primary antibody was used to provide the negative (background) control value. The readings from the duplicate wells at each compound concentration were averaged and, after the subtraction of the mean background from all values, were expressed as a percentage of the positive control signal. […]

COC[C@H]1C[C@@](CC(C)C)(C(=O)O)N(C(=O)c2ccc(C(C)(C)C)c(OC)c2)[C@H]1c1ncc(C)s1 (racemic) [Compound C, rel-(2S,4S,5R)-2-isobutyl-1-(3-methoxy-4-tert-butylbenzoyl)-4-methoxymethyl-5-(5-methyl-1,3-thiazol-2-yl)pyrrolidine-2-carboxylic acid, reference compound]
IC50: 0.15 to 10 µM
